Assays:
synthetic Aβ(1-40) = target: T1, synthetic Aβ(1-40) (Homo sapiens, UniProt P05067); experiment: Inhibition of Aβ(1-40) beta-pleated sheet formation (ThT fluorescence); format: biochemical; conditions: 10 μM compound, ThT 3 μM, PBS pH 6.0, 12 hours; for inhibition at 10 µM: read-out: inhibition of Aβ(1-40) beta-pleated sheet formation compared to the controls
T1 construct: 3 μL of Aβ(1-40)(3 μg) prepared with dH2O
Excerpt: The deposition of amyloid β-peptide (Aβ) is associated with the development of Alzheimer's disease. See, for example, G. G. Glenner et al. (1984) Biochem. Biophys. Res. Commun., 120:885-890; and R. E. Tanzi (1989) Ann. Med., 21:91-94. Accordingly, compounds which effectively disrupt the formation of Aβ(1-40) or Aβ(1-42) beta-pleated sheets are potentially useful for preventing and/or reversing such amyloid deposits. Thioflavin T (ThT) is known to rapidly associate with beta-pleated sheets, particularly the aggregated fibrils of synthetic Aβ(1-40). This association gives rise to a new excitation maximum at 440 nm and to enhanced emission at 490 nm.
The experiments were performed using a CytoFluor II fluorescence plate reader having the following parameters:
Into each well was aliquoted 95 μl of ThT (3 μM) prepared in PBS (pH 6.0), 2 μL of the compound to be tested (10 μM) prepared with 0.05% of methylcellulose in PBS (pH 6.0), and 3 μL of Aβ(1-40)(3 μg) prepared with dH2O (the compounds prepared in Examples 1, 3, 4, 5, 6, 7, 8, 9, 11 and 12 were tested). The fluorescence measurement began when the Aβ(1-40) was added and continued for a total of 12 hours. The percent inhibition of beta-pleated sheet formation was calculated from the relative fluorescence unit difference between aggregation in the presence and in the absence of the test compounds.

[1] = system: primary neuronal/astrocyte cultures; experiment: Protection against Aβ(25-35)-induced neuronal cell loss; format: cell-based, Sprague Dawley rat; conditions: 100 μM test compound, 30 μM Aβ(25-35), 96 hours
Procedure: Patients with Alzheimer's disease are known to suffer a progressive loss of neuronal cells. See, for example, P. J. Whitehause et al., (1982) Science, 215:1237-1239. […] Sprague Dawley rat hippocampus of 18-day-gestation embryos was excised and then dissociated by trituration to prepare primary neuronal/astrocyte cultures. Cells (3×10^5) were plated on 35 mm poly-D-lysine-coated plates containing Eagle's minimum essential medium supplemented with 10% fetal bovine serum. After 3-5 hours, the original medium was removed and replaced with 1 mL of fresh medium. Cultures were maintained at 37° C. in a 5% CO2/95% air humidified incubator.
To the cells (7 DIV) was added 30 μM of Aβ(25-35) dissolved in dH2O (stored at −20° C.) and 100 μM of the test compound (i.e., a compound of Example 1, 3, 4, 5, 6, 7, 8, 12 or 13 above) in 1% methylcellulose. Controls were also conducted without the test compound. The percentage of morphologically viable neurons was determined counting the number of viable neurons after 96 hours treatment compared to the number of neurons before treatment in the same premarked culture regions (three regions/culture, n=6).

THP-1 cells = experiment: Reduction of β-amyloid-induced increased IL-1β release (ELISA); format: cell-based, human; conditions: 100 μM test compound with LPS and Aβ25-35, 48 hours
Procedure: THP-1 cells, a human monocyte cell line from American Type Culture Collection, were grown in RPMI-1640 medium plus 10% fetal bovine serum (FBS, not heat-inactivated) in T-flasks. The medium was changed every two days by spinning down (800 rpm, 5 minutes) the cells and added the same fresh medium. Alternatively, the cultures were maintained by the addition of fresh medium. The cultures were maintained at a cell concentration ranging from between 1×10^5 and 1×10^6 cells/mL. Because sera may contain unknown factors which can affect macrophage/monocyte IL-1 production, the FBS was reduced to 5% for 24 hours. The FBS was further reduced to 2% over two days prior to starting each experiment. The cells were collected by centrifugation and resuspended to 2% FBS. Cell numbers were calculated and cells were plated on 24-well plates (3×10^5 cells/0.6 mL/well). Cells were then treated with LPS (0.5 μg/ml or 0-10 μg/ml for LPS dose-response experiments) alone or in combination with Aβ peptides (5 μM or 0.05-5 μM for dose-response experiments). When determining the effect of the test compounds on cytokine release, 100 μM of the test compound was added with the LPS and Aβ25-35 and this mixture was incubated for 48 hours prior to performing ELISA.
IL-1β secretions into medium by LPS-stimulated THP-1 cells, in the presence or absence of amyloid peptides and a test compound, were assayed with a commercially available ELISA kit (R & D Systems). Briefly, a microtiter plate coated with a murine monoclonal antibody to human IL-1β was supplied by the manufacturer. Standards and samples were pipetted into the wells and any IL-1β present was bound by the immobilized antibody. Unbound proteins were washed away and a horseradish peroxidase-linked polyclonal antibody specific for IL-1β was added to the wells to “sandwich”the IL-1β bound in the initial step. […] Color development was stopped with 2 N sulfuric acid and the optical density of the standard and the test samples was measured at 450 nm. The amounts of IL-1β present in the samples were calculated based upon a standard curve. […]

[2] = Free radical trapping, DCF oxidation, ferrous iron system; format: biochemical; conditions: 100 μM test compound, 100 μM FeSO4, 50 μM DCF in MEM, 37° C., 2 hrs
Procedure: (§1) Dichlorofluorescein (DCF) is a compound that fluoresces when oxidized by reactive oxygen species (ROS), such as hydroxyl, peroxyl, or alkoxyl free radicals. Test compounds were evaluated for their ability to scavenge radicals by determining their capacity to prevent the DCF oxidation in a radical generating environment. Two radical generating systems were used: (i) ferrous iron and (ii) tert-butyl hydroperoxide. When ferrous iron is placed in normoxic solution, it autooxidizes to produce ROS in the form of hydroxyl radicals, superoxide anion free radicals, and hydrogen peroxide. Similarly, when tert-butyl hydroperoxide is placed in non-chelated media, trace metals catalyze its oxidation to yield alkoxy, peroxyl, and alkyl free radicals.
(§2) In this assay, either 100 μM FeSO4 or 25 μM tert-butyl hydroperoxide were mixed with 50 μM DCF and 100 μM of the test compound in MEM and the mixture was incubated at 37° C. for 2 hrs. The fluorescence wavelengths measured were 485 nm for excitation and 530 nm for emission. In these tests, N-isopropyl-α-(2-sulfofuran-5-yl)nitrone sodium salt (prepared in Example 1 above) reduced fluorescence by 20% in the Fe^+2 assay and by 13% in the tert-butyl hydroperoxide assay. In comparison, a known free radical trap, N-tert-butyl-α-phenylnitrone (PBN) reduced fluorescence by 48% in the Fe^+2 assay and by 9% in the tert-butyl hydroperoxide assay.

[3] = Free radical trapping, DCF oxidation, tert-butyl hydroperoxide system; format: biochemical; conditions: 100 μM test compound, 25 μM tert-butyl hydroperoxide, 50 μM DCF in MEM, 37° C., 2 hrs
Procedure: as §1, §2

T1 sequence (P05067 672-711 limits assumed): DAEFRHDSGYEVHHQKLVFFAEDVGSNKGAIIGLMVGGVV

CCCC[N+]([O-])=Cc1ccc(S(=O)(=O)O)o1 [Example 3, N-n-Butyl-α-(2-sulfofuran-5yl)nitrone]
inhibition of Aβ(1-40) beta-pleated sheet formation compared to the controls (synthetic Aβ(1-40)): did not significantly reduce

CC(C)(C)[N+]([O-])=Cc1ccc(S(=O)(=O)O)o1 [Example 4, N-tert-Butyl-α-(2-sulfofuran-5-yl)nitrone]
inhibition of Aβ(1-40) beta-pleated sheet formation compared to the controls (synthetic Aβ(1-40)): did not significantly reduce | reduction of Aβ(25-35)-induced neuronal cell loss compared to the controls [1]: did not significantly reduce

CCCCCC[N+]([O-])=Cc1ccc(S(=O)(=O)O)o1 [Example 5, N-n-Hexyl-α-(2-sulfofuran-5-yl)nitrone]
inhibition at 10 µM (synthetic Aβ(1-40)): 15 to 71%

O=S(=O)(O)c1ccc(C=[N+]([O-])C2CCCCC2)o1 [Example 6, N-Cyclohexyl-α-(2-sulfofuran-5-yl)nitrone]
inhibition at 10 µM (synthetic Aβ(1-40)): 15 to 71%

CC(C)(C)CC(C)(C)[N+]([O-])=Cc1ccc(S(=O)(=O)O)o1 [Example 7, N-tert-Octyl-α-(2-sulfofuran-5-yl)nitrone]
inhibition at 10 µM (synthetic Aβ(1-40)): 15 to 71%

O=S(=O)(O)c1ccc(C=[N+]([O-])Cc2ccccc2)o1 [Example 9, N-Benzyl-α-(2-sulfofuran-5-yl)nitrone]
inhibition at 10 µM (synthetic Aβ(1-40)): 15 to 71%

CC(C)[N+]([O-])=Cc1ccc(S(=O)(=O)N2CCOCC2)o1 [Example 11, N-Isopropyl-α-[2-(N-morpholinosulfonyl)furan-5-yl]nitrone]
reduction of the β-amyloid-induced increased release of interleukin-1β compared to the controls (THP-1 cells): did not significantly reduce

CCN(CC)S(=O)(=O)c1ccc(C=[N+]([O-])C(C)C)o1 [Example 12, N-Isopropyl-α-[2-(N,N-diethylsulfamoyl)furan-5-yl]nitrone]
inhibition at 10 µM (synthetic Aβ(1-40)): 15 to 71%

CC(C)[N+]([O-])=Cc1ccc(S(=O)(=O)N2CCN(C)CC2)o1 [Example 14, N-Isopropyl-α-[2-(N-4-methylpiperazin-1-ylsulfonyl)furan-5-yl]nitrone]
reduction of the β-amyloid-induced increased release of interleukin-1β compared to the controls (THP-1 cells): did not significantly reduce

CC(C)[N+]([O-])=Cc1ccc(S(=O)(=O)N2CCN(C)CC2)o1.Cl [Example 15, N-Isopropyl-α-[2-(N-4-methylpiperazin-1-ylsulfonyl)-furan-5-yl]nitrone Hydrochloride]
reduction of the β-amyloid-induced increased release of interleukin-1β compared to the controls (THP-1 cells): did not significantly reduce

CC(C)(C)[N+]([O-])=Cc1ccccc1 [PBN, N-tert-butyl-α-phenylnitrone, reference compound]
reduced fluorescence in the Fe^+2 assay [2]: 48% | reduced fluorescence in the tert-butyl hydroperoxide assay [3]: 9%

N-Adamantyl-α-(2-sulfofuran-5-yl)nitrone [Example 8]
inhibition of Aβ(1-40) beta-pleated sheet formation compared to the controls (synthetic Aβ(1-40)): did not significantly reduce

Source: patent US6376540B1, “Furan nitrone compounds” (Centaur Pharmaceuticals, Inc., priority 1996, dated 2002)
